{"source": "patent US5886026A", "about": "“Anti-angiogenic compositions and methods of use” (priority 1994, dated 1999)", "key": {"[1]": {"tested_on": "synoviocytes", "assay": "3H-Thymidine incorporation into synoviocytes", "format": "cell-based", "method": "At these times, […] of ^3 H-thymidine was added to the cell culture and incubated for 2 hours at 37° C. The cells were placed through a cell harvester, washed through a filter, the filters were cut, and the amount of radiation contained in the filter sections determined. Once the amount of thymidine incorporated into the cells was ascertained, it was used to determine the rate of cell proliferation. This experiment was repeated three times and the data collated together."}, "[2]": {"tested_on": "c-fos", "assay": "c-fos expression in chondrocytes (Northern blot)", "format": "cell-based, bovine", "conditions": "10^-6 to 10^-8 M", "description": "Human recombinant TNFα was dissolved in phosphate buffered saline (PBS) with 0.1% bovine serum albumin (BSA). Total RNA from bovine articular chondrocytes was isolated by the acidified guanidine isothiocyanate method and the levels of c-fos mRNA determined by Northern blot analysis. Denatured RNA samples (12 μg) were analyzed by gel electrophoresis in a denaturing 1% agarose gel, transferred to a nylon membrane (Bio-Rad), cross-linked with an ultraviolet cross-linker (Stratagene UV stratalinker 1800), and hybridized with ^32 P-labeled rat c-fos DNA. mRNA for tubulin and total RNA were used as controls. To determine tubulin mRNA, the blots described above were subsequently stripped of DNA and re-probed with ^32 P-labeled rat P-tubulin cDNA. This experimented was conducted three times and the data collated."}, "[3]": {"assay": "in vitro", "conditions": "human, neutrophils", "description": "(§3) Neutrophils were prepared from freshly collected human citrated whole blood. Briefly, 400 ml of blood were mixed with 80 ml of 4% dextran T500 (Pharmacia LKB, Biotechnology AB Uppsala, Sweden) in HBSS and allowed to settle for 1 h. Plasma was collected continuously and 5 ml applied to 5 ml of Ficoll Paque (Pharmacia) in 15 ml polypropylene tubes (Coming, N.Y.). Following centrifugation at 500×g for 30 min, the neutrophil pellets were washed free of erythrocytes by 20 s of hypotonic shock. Neutrophils were resuspended in HBSS, kept on ice and used for experiments within 3 h. Neutrophil viability and purity was always greater than 90%.\n(§4) Cells were incubated for 20 minutes at 33° C. then for 10 minutes at 37° C. before addition to crystals or zymosan."}, "[4]": {"assay": "Encapsulation of paclitaxel or baccatin in ELVAX:poly-l-lactic acid microspheres", "format": "physicochemical", "conditions": "for amount encapsulated: from 500 μg", "method": "Microspheres are then prepared in a dissolution machine (Six-spindle dissolution tester, VanderKanp, Van Kell Industries Inc., U.S.A.) in triplicate at 200 rpm, 42° C., for 3 hours. Microspheres so prepared are washed twice in water and sized on the microscope."}, "[5]": {"tested_on": "neutrophils", "assay": "Neutrophil superoxide anion generation", "format": "cell-based, human", "conditions": "28 μM", "method": "(§1) All experiments that studied neutrophil responses to crystals or zymosan in the presence of paclitaxel were performed using plasma opsonized CPPD or zymosan. Opsonization of crystals or zymosan was done with 50% heparinized plasma at a concentration of 75 mg of CPPD or 12 mg of zymosan per ml of 50% plasma. Crystals or zymosan were incubated with plasma for 30 min. at 37° C. and then washed in excess HBSS.\nSuperoxide anion concentrations were measured using the superoxide dismutase inhibitable reduction of cytochrome c assay. Briefly, 25 mg of crystals or 0.5 mg of zymosan was placed in a 1.5 ml capped Eppendorf tube and warmed to 37° C. 0.5 ml of cells at 37° C. were added together with ferricytochrome c (final concentration 1.2 mg/ml) and the cells were activated by shaking the capped tubes. […] Control tubes were set up under the same conditions with the inclusion of superoxide dismutase at 600 units per ml."}, "[6]": {"tested_on": "synovial fibroblasts", "assay": "Synoviocyte proliferation (Trypan blue)", "format": "cell-based, bovine", "conditions": "24 hours"}, "[7]": {"tested_on": "neutrophils", "assay": "Neutrophil viability (LDH release)", "conditions": "46 μM, one hour, 37° C.", "description": "as §3, §4"}, "[8]": {"tested_on": "normal chondrocytes", "assay": "Chondrocyte viability (Trypan blue)", "format": "cell-based", "conditions": "72 hours"}, "[9]": {"assay": "Release from ELVAX:poly-l-lactic acid microspheres, 18 hours tumbling at 37° C.", "format": "physicochemical"}, "[10]": {"tested_on": "collagenase", "assay": "IL-1 induced collagenase expression in chondrocytes (Northern blot)", "format": "cell-based, bovine", "conditions": "10^-6 M", "method": "C-fos is an oncogene transcription factor shown to be involved and required for the induction of genes involved in cell proliferation and collagenase expression. […] When IL-1 is administered to chondrocytes in vitro there is a transient increase in fos mRNA levels which peak 30-60 minutes later, while collagenase mRNA is detected 9 hours later and continues to increase up to 12 hours (data not shown) after IL-1 stimulation. The fos and collagenase mRNA can be detected using the respective cDNA probes and analyzed by Northern blot analysis. This allows the determination of agents capable of inhibiting collagenase production and an approximation of the step in the collagenase synthetic pathway that is affected by the treatment.\nThe cells were then incubated for a further 16 hours. Total RNA from bovine articular chondrocytes was isolated by the acidified guanidine isothiocyanate method and the collagenase mRNA determined by Northern blot analysis. The RNA samples were prepared as described above using ^32 P-labeled rat collagenase cDNA."}, "[11]": {"tested_on": "neutrophils", "assay": "Neutrophil degranulation, lysozyme release", "format": "cell-based, human", "conditions": "28 μM, CPPD", "method": "as §1\n(§2) One and a half milliliter Eppendorf tubes containing either 25 mg of CPPD or 1 mg of zymosan were preheated to 37° C. 0.5 ml of cells at 37° C. were added followed by vigorous shaking to initiate the reactions.\nBriefly, Micrococcuis lysodeikticzis was suspended at 0.1 mg/ml in 65 mM potassium phosphate buffer, pH 6.2 and the absorbance at 450 nm was adjusted to 0.7 units by dilution. The crystal (or zymosan) and cell supernatant (100 μl) was added to 2.5 ml of the Micrococcus suspension and the decrease in absorbance was monitored."}, "[12]": {"tested_on": "neutrophils", "assay": "Neutrophil degranulation, myeloperoxidase release", "format": "cell-based, human", "conditions": "28 μM, CPPD", "method": "as §1, §2\nMyeloperoxidase (MPO) activity was measured by the increase in absorbance at 450 nm that accompanies the oxidation of dianisidine. 7.8 mg of dianisidine was dissolved in 100 ml of 0.1M citrate buffer, pH 5.5 at […] by sonication. To a 1 ml cuvette, 0.89 mL of the dianisidine solution was added, followed by 50 μl of 1% Triton×100, 10 μl of a 0.05% hydrogen peroxide in water solution and 50 μl of crystal-cell supernatant."}, "[13]": {"tested_on": "neutrophils", "assay": "Neutrophil chemiluminescence in response to plasma opsonized CPPD or zymosan", "format": "cell-based, human", "method": "CPPD (triclinic) crystals were prepared. The size distribution of the crystals was approximately 33% less than 10 μm, 58% between 10 and 20 μm and 9% greater than 20 μm. Crystals prepared under the above conditions are pyrogen free and crystals produced under sterile, pyrogen free conditions produced the same magnitude of neutrophil response as crystals prepared under normal, non-sterile laboratory conditions.\nas §1\nAll chemiluminescence studies were performed at a cell concentration of 5,000,000 cells/ml in HBSS with CPPD (50 mg/ml). In all experiments 0.5 ml of cells was added to 25 mg of CPPD or 0.5 mg of zymosan in 1.5 ml capped Eppendorf tubes. 10 μl of luminol dissolved in 25% DMSO in HBSS was added to a final concentration of 1 μM and the samples were mixed to initiate neutrophil activation by the crystals or zymosan. Chemiluminescence was monitored using an LKB Luminometer (Model 1250.) at 37° C. with shaking immediately prior to measurements to resuspend the crystals or zymosan. Control tubes contained cells, drug and luminol (crystals absent)."}}}
{"smiles": "CC(=O)O[C@H]1C(=O)[C@@]2(C)[C@H]([C@H](OC(=O)c3ccccc3)[C@]3(O)C[C@H](OC(=O)[C@H](O)[C@@H](NC(=O)c4ccccc4)c4ccccc4)C(C)=C1C3(C)C)[C@]1(OC(C)=O)CO[C@@H]1C[C@@H]2O", "note": "[paclitaxel]", "values": [{"measurement": "minimal effective concentration", "setting": "[1]; 6 or 24 hours, read-out: lowest concentration inhibiting 3H-thymidine incorporation", "value": "≤ 0.01", "unit": "µM"}, {"measurement": "inhibition of thymidine incorporation, high vs low concentrations", "setting": "[1]; 6 hours", "value": "no significant difference"}, {"measurement": "inhibition of thymidine incorporation at low concentration", "setting": "[1]; 24 hours, 10^-8 M", "value": "some of the effect was lost at lower concentrations of the drug (10^-8 M), but was still substantially lower than that seen in control animals"}, {"measurement": "total RNA and tubulin expression", "setting": "[2]", "value": "similarly unaffected"}, {"measurement": "c-fos expression", "setting": "[2]; TNF stimulated", "value": "does not alter c-fos expression at any concentration"}, {"measurement": "cytotoxicity at 1 h, 46 µM", "setting": "[3]", "value": "< 5", "unit": "%"}, {"measurement": "encapsulated, % by weight of the polymer", "setting": "[4]; fluorescence", "value": 1.5, "unit": "%"}, {"measurement": "encapsulated, % of original weight", "setting": "[4]; fluorescence", "value": 15, "unit": "%"}, {"measurement": "amount encapsulated", "setting": "[4]; fluorescence", "value": 75, "unit": "µg"}, {"measurement": "encapsulated, % by weight of the polymer", "setting": "[4]; uv/vis", "value": 1.2, "unit": "%"}, {"measurement": "encapsulated, % of original weight", "setting": "[4]; uv/vis", "value": 12, "unit": "%"}, {"measurement": "amount encapsulated", "setting": "[4]; uv/vis", "value": 58, "unit": "µg"}, {"measurement": "superoxide anion production", "setting": "[5]; CPPD", "value": "decrease in the amount of superoxide generated at all times"}, {"measurement": "superoxide anion production", "setting": "[5]; zymosan", "value": "less dramatic than the inhibition of CPPD activation but was significant at all times"}, {"measurement": "toxicity to synovial fibroblasts", "setting": "[6]; 10^-6 M and 10^-5 M", "value": "toxic to the synovial fibroblasts in vitro"}, {"measurement": "cytotoxicity to proliferating synovial fibroblasts", "setting": "[6]", "value": "cytotoxic to proliferating synovial fibroblasts in a concentration dependent manner"}, {"measurement": "minimal effective concentration", "setting": "[6]; Bos taurus, Fibroblast, read-out: lowest concentration inhibiting proliferation", "value": "≤ 0.1", "unit": "µM"}, {"measurement": "cell death", "setting": "[7]", "value": "did not cause cell death"}, {"measurement": "cytotoxicity to normal chondrocytes", "setting": "[8]", "value": "no cytotoxicity to normal chondrocytes"}, {"measurement": "viability of normal chondrocytes", "setting": "[8]; up to 10^-5 M", "value": "does not affect the viability of normal chondrocytes"}, {"measurement": "released from the microspheres", "setting": "[9]; fluorescence", "value": 6, "unit": "%"}, {"measurement": "released from the microspheres", "setting": "[9]; uv/vis", "value": 10.3, "unit": "%"}, {"measurement": "collagenase mRNA", "setting": "[10]", "value": "not detectable above background"}, {"measurement": "inhibition of IL-1 induced collagenase expression", "setting": "[10]", "value": "completely inhibited"}, {"measurement": "lysozyme release", "setting": "[11]", "value": "reduced lysozyme release"}, {"measurement": "myeloperoxidase release", "setting": "[12]", "value": "significantly inhibited CPPD induced myeloperoxidase release at all times"}, {"measurement": "inhibition of chemiluminescence over time", "setting": "[13]; 28 μM, CPPD and zymosan", "value": "significant at all times from 3 to 16 minutes"}, {"measurement": "effect on chemiluminescence of controls", "setting": "[13]; all concentrations, no stimulus", "value": "no effect on the chemiluminescence values of controls"}, {"measurement": "neutrophil activation", "setting": "[13]; crystal or particulate induced", "value": "strong inhibitor"}]}
